One may read the EC50 as the midpoint of the concentration-response curve. High values mean a need for much substance, low ones an effect from little substance.

This experiment concerns HCV replicon (NS3-NS5B regions of HCV type 1b) in Huh-7 luc/neo cells. Description: HCV replicon assay, stable replicon cell reporter assay (Huh-Luc, luciferase). The format is cell-based. The settings on record: incubation of three days, luciferase activity. The text has this: The compounds of the present invention were examined for activity in the inhibition of HCV RNA replication in a cellular assay. […] The cellular assay was based on a bicistronic expression construct, as described by Lohmann et al. (1999) Science vol. 285 pp. 110-113 with modifications described by Krieger et al. (2001) Journal of Virology 75: 4614-4624, in a multi-target screening strategy. In essence, the method is as follows.
The assay utilized the stably transfected cell line Huh-7 luc/neo (hereafter referred to as Huh-Luc; kindly provided by Dr Ralf Bartenschlager, Reblikon GmBh, Germany). This cell line harbors an RNA encoding a bicistronic expression construct comprising the wild type NS3-NS5B regions of HCV type 1b translated from an Internal Ribosome Entry Site (IRES) from encephalomyocarditis virus (EMCV), preceded by a reporter portion (FfL-luciferase), and a selectable marker portion (neo^R, neomycine phosphotransferase). The construct was bordered by 5′ and 3′ NTRs (non-translated regions) from HCV type 1b. Continued culture of the replicon cells in the presence of G418 (neo^R) is dependent on the replication of the HCV RNA. The stably transfected replicon cells that express HCV RNA, which replicates autonomously and to high levels, encoding inter alia luciferase, were used for screening the antiviral compounds.
The replicon cells were plated in 384 well plates in the presence of the test and control compounds which were added in various concentrations. Following an incubation of three days, HCV replication was measured by assaying luciferase activity (using standard luciferase assay substrates and reagents and a Perkin Elmer ViewLux™ ultraHTS microplate imager). Replicon cells in the control cultures have high luciferase expression in the absence of any inhibitor. The inhibitory activity of the compound on luciferase activity was monitored on the Huh-Luc cells, enabling a dose-response curve for each test compound. EC50 values were then calculated, which value represents the amount of the compound required to decrease by 50% the level of detected luciferase activity, or more specifically, the ability of the genetically linked HCV replicon RNA to replicate (Table 1).
Background: A replicon is a self-replicating genome or part of one, used to study replication in cells.

With `CC(C)CN(CC(O)C(Cc1ccccc1)NC(=O)OCc1cncs1)S(=O)(=O)c1ccc2nc(N(C)C(=O)c3ccncc3)oc2c1` (stereo not shown) [Compound 9, [1-Benzyl-2-hydroxy-3-(isobutyl-{2-[methyl-(pyridine-4-carbonyl)-amino]-benzooxazole-6-sulfonyl}-amino)-propyl]-carbamic acid thiazol-5-ylmethyl ester], the half-maximal effective concentration (EC50) (Hepatitis C virus, Huh-7, 72 h) was in the range of 10 to 32 µM.
The same measure, in the same setting: under `CC(C)CN(CC(O)C(Cc1ccccc1)NC(=O)OCc1cncs1)S(=O)(=O)c1ccc2nc(N(C)C)oc2c1` (stereo not shown) [Compound 33, {1-Benzyl-3-[(2-dimethylamino-benzooxazole-6-sulfonyl)-isobutyl-amino]-2-hydroxy-propyl}-carbamic acid thiazol-5-ylmethyl ester] stands 10 to 32 µM; under `CC(C)CN(CC(O)C(Cc1ccccc1)NC(=O)OCc1cncs1)S(=O)(=O)c1ccc2nc(NCCN(C)C)sc2c1` (stereo not shown) [Compound 14, (1-Benzyl-3-{[2-(2-dimethylamino-ethylamino)-benzo-thiazole-6-sulfonyl]-isobutyl-amino}-2-hydroxy-propyl)-carbamic acid thiazol-5-ylmethyl ester], 2 to 10 µM.
On the same count and under the same terms, for `CC(C)CN(CC(O)C(Cc1ccccc1)NC(=O)OCc1cncs1)S(=O)(=O)c1ccc2nc(NC(=O)c3ccncc3)oc2c1` (stereo not shown) [Compound 35, [1-Benzyl-2-hydroxy-3-(isobutyl-{2-[(pyridine-4-carbonyl)-amino]-benzooxazole-6-sulfonyl}-amino)-propyl]-carbamic acid thiazol-5-ylmethyl ester] the value was below 2 µM; for `CC(C)CN(CC(O)C(Cc1ccccc1)NC(=O)OCc1cncs1)S(=O)(=O)c1ccc2nc(NC(=O)C3CCN(C)CC3)oc2c1` (stereo not shown) [Compound 26, [1-Benzyl-2-hydroxy-3-(isobutyl-{2-[(1-methyl-piperidine-4-carbonyl)-amino]-benzooxazole-6-sulfonyl}-amino)-propyl]-carbamic acid thiazol-5-ylmethyl ester], 10 to 32 µM; for `CC(C)CN(CC(O)C(Cc1ccccc1)NC(=O)OCc1cncs1)S(=O)(=O)c1ccc2ncn(CCc3ccccc3)c2c1` (stereo not shown) [Compound 41, {1-Benzyl-2-hydroxy-3-[isobutyl-(3-phenethyl-3H-benzo-imidazole-5-sulfonyl)-amino]-propyl}-carbamic acid thiazol-5-ylmethyl ester], 10 to 32 µM.
On the same count and under the same terms, for `CC(=O)N(C)c1nc2ccc(S(=O)(=O)N(CC(C)C)CC(O)C(Cc3ccccc3)NC(=O)OCc3cncs3)cc2s1` (stereo not shown) [Compound 21, (3-{[2-(Acetyl-methyl-amino)-benzothiazole-6-sulfonyl]-isobutyl-amino}-1-benzyl-2-hydroxy-propyl)-carbamic acid thiazol-5-ylmethyl ester] the value was 10 to 32 µM; for `CC(C)CN(CC(O)C(Cc1ccccc1)NC(=O)OCc1cncs1)S(=O)(=O)c1ccc(-c2csc(Nc3ccncc3)n2)cc1` (stereo not shown) [Compound 43, [1-Benzyl-2-hydroxy-3-(isobutyl-{4-[2-(pyridin-4-ylamino)-thiazol-4-yl]-benzenesulfonyl}-amino)-propyl]-carbamic acid thiazol-5-ylmethyl ester], below 2 µM; for `CC(C)CN(CC(O)C(Cc1ccccc1)NC(=O)OCc1cncs1)S(=O)(=O)c1ccc2nc(NC(=O)CN(C)C)oc2c1` (stereo not shown) [Compound 29, (1-Benzyl-3-{[2-(2-dimethylamino-acetylamino)-benzo-oxazole-6-sulfonyl]-isobutyl-amino}-2-hydroxy-propyl)-carbamic acid thiazol-5-ylmethyl ester], 2 to 10 µM.
`CC(C)CN(CC(O)C(Cc1ccccc1)NC(=O)OCc1cncs1)S(=O)(=O)c1ccc2nc(N(C)C(=O)C3CCCN(C)C3)oc2c1` (stereo not shown) [Compound 37, [1-Benzyl-2-hydroxy-3-(isobutyl-{2-[methyl-(1-methyl-piperidine-3-carbonyl)-amino]-benzooxazole-6-sulfonyl}-amino)-propyl]-carbamic acid thiazol-5-ylmethyl ester] came in with a 50% effective concentration (EC50) (Hepatitis C virus, Huh-7, 72 h) of 10 to 32 µM.
Compound `CCOC(=O)Nc1nc2ccc(S(=O)(=O)N(CC(C)C)CC(O)C(Cc3ccccc3)NC(=O)OCc3cncs3)cc2o1` (stereo not shown) [Compound 2, (6-{[2-Hydroxy-4-phenyl-3-(thiazol-5-ylmethoxycarbonyl-amino)-butyl]-isobutyl-sulfamoyl}-benzooxazol-2-yl)-carbamic acid ethyl ester] yielded a half-maximal effective concentration (EC50) (Hepatitis C virus, Huh-7, 72 h) of 10 to 32 µM.
`CC(C)CN(CC(O)C(Cc1ccccc1)NC(=O)OCc1cncs1)S(=O)(=O)c1ccc2nc(N(C)C(=O)C3CCC(=O)N3)oc2c1` (stereo not shown) [Compound 8, [1-Benzyl-2-hydroxy-3-(isobutyl-{2-[methyl-(5-oxo-pyrrolidine-2-carbonyl)-amino]-benzooxazole-6-sulfonyl}-amino)-propyl]-carbamic acid thiazol-5-ylmethyl ester] registered a half-maximal effective concentration (EC50) (Hepatitis C virus, Huh-7, 72 h) of 10 to 32 µM.
Same read-out and setting: under `CC(C)CN(CC(O)C(Cc1ccccc1)NC(=O)OCc1cnco1)S(=O)(=O)c1ccc2nc(N)oc2c1` (stereo not shown) [Compound 34, {3-[(2-Amino-benzooxazole-6-sulfonyl)-isobutyl-amino]-1-benzyl-2-hydroxy-propyl}-carbamic acid oxazol-5-ylmethyl ester] stands 10 to 32 µM; under `CC(C)CN(CC(O)C(Cc1ccccc1)NC(=O)OCc1cncs1)S(=O)(=O)c1ccc2nc(NC(=O)CN3CCN(C)CC3)oc2c1` (stereo not shown) [Compound 7, [1-Benzyl-2-hydroxy-3-(isobutyl-{2-[2-(4-methyl-piperazin-1-yl)-acetylamino]-benzooxazole-6-sulfonyl}-amino)-propyl]-carbamic acid thiazol-5-ylmethyl ester], 2 to 10 µM; under `CC(C)CN(CC(O)C(Cc1ccccc1)NC(=O)OCc1cncs1)S(=O)(=O)c1ccc2nc(N3CCCCC3)oc2c1` (stereo not shown) [Compound 31, {1-Benzyl-2-hydroxy-3-[isobutyl-(2-piperidin-1-yl-benzo-oxazole-6-sulfonyl)-amino]-propyl}-carbamic acid thiazol-5-ylmethyl ester], 2 to 10 µM.
Under “Hepatitis C virus, Huh-7, 72 h”, `CC(C)CN(CC(O)C(Cc1ccccc1)NC(=O)OCc1cncs1)S(=O)(=O)c1ccc2nc(NC(=O)c3ccc(O)nc3)oc2c1` (stereo not shown) [Compound 3, [1-Benzyl-2-hydroxy-3-({2-[(6-hydroxy-pyridine-3-carbonyl)-amino]-benzooxazole-6-sulfonyl}-isobutyl-amino)-propyl]-carbamic acid thiazol-5-ylmethyl ester] gave an EC50 below 2 µM.
The compound `CC(C)CN(CC(O)C(Cc1ccccc1)NC(=O)OCc1cncs1)S(=O)(=O)c1ccc2nc(NC(=O)C3CCC(=O)N3)oc2c1` (stereo not shown) [Compound 24, [1-Benzyl-2-hydroxy-3-(isobutyl-{2-[(5-oxo-pyrrolidine-2-carbonyl)-amino]-benzooxazole-6-sulfonyl}-amino)-propyl]-carbamic acid thiazol-5-yl methyl ester] gave an EC50 of 2 to 10 µM.
`CC(C)CN(CC(O)C(Cc1ccccc1)NC(=O)OCc1cncs1)S(=O)(=O)c1ccc2nc(N(C)C(=O)C3CCN(C)CC3)oc2c1` (stereo not shown) [Compound 38, [1-Benzyl-2-hydroxy-3-(isobutyl-{2-[methyl-(1-methyl-piperidine-4-carbonyl)-amino]-benzooxazole-6-sulfonyl}-amino)-propyl]-carbamic acid thiazol-5-ylmethyl ester]: the EC50 (Hepatitis C virus, Huh-7, 72 h) was in the range of 10 to 32 µM.
For the compound `CC(C)CN(CC(O)C(Cc1ccccc1)NC(=O)OCc1cnc(Cl)s1)S(=O)(=O)c1ccc2nc(N)oc2c1` (stereo not shown) [Compound 28, {3-[(2-Amino-benzooxazole-6-sulfonyl)-isobutyl-amino]-1-benzyl-2-hydroxy-propyl}-carbamic acid 2-chloro-thiazol-5-ylmethyl ester], the EC50 (Hepatitis C virus, Huh-7, 72 h) lay in the range of 2 to 10 µM.
The compound `CC(C)CN(CC(O)C(Cc1ccccc1)NC(=O)OCc1cncs1)S(=O)(=O)c1ccc2nc(N(C)CCN3CCCC3)oc2c1` (stereo not shown) [Compound 6, {1-Benzyl-2-hydroxy-3-(isobutyl-{2-[methyl-(2-pyrrolidin-1-yl-ethyl)-amino]-benzooxazole-6-sulfonyl}-amino)-propyl]-carbamic acid thiazol-5-ylmethyl ester] came in with a concentration for a half-maximal effect (EC50) (Hepatitis C virus, Huh-7, 72 h) of 10 to 32 µM.
Still for that read-out and setting: under `CC(C)CN(CC(O)C(Cc1ccccc1)NC(=O)OCc1cncs1)S(=O)(=O)c1ccc2nc(NCCN3CCNCC3)sc2c1` (stereo not shown) [Compound 18, (1-Benzyl-2-hydroxy-3-{isobutyl-[2-(2-piperazin-1-yl-ethyl-amino)-benzothiazole-6-sulfonyl]-amino}-propyl)-carbamic acid thiazol-5-ylmethyl ester] stands 2 to 10 µM; under `CC(C)CN(CC(O)C(Cc1ccccc1)NC(=O)OCc1cncs1)S(=O)(=O)c1ccc2nc(N)sc2c1` (stereo not shown) [Compound 13, {3-[(2-Amino-benzothiazole-6-sulfonyl)-isobutyl-amino]-1-benzyl-2-hydroxy-propyl}-carbamic acid thiazol-5-ylmethyl ester], 2 to 10 µM.

The record behind these values is patent publication US20080234288A1, “Hcv Inhibiting Sulfonamides” (priority 2003, published 2008).
